# In US8334253B2, “Cosmetic and dermatological formulations of MNTF peptides” (Dermacare Neuroscience Institute, priority 2008, dated 2012):
# Peptide text beside a SMILES is read from it. * marks the point of attachment. Palmitoyl = CCCCCCCCCCCCCCCC(=O)*
# Legend:
# Format in all cases: cell-based
# [1] = test system: cellular peroxide levels in human epidermal keratinocytes; assay: Cellular peroxide levels in keratinocytes, DCFH-DA dye and flow cytometry, with and without exogenous H2O2
# Method: Hydrogen peroxide can induce damages to skin cells. The dermal protective efficacy of Pal-hexapeptide was assessed by measuring basal peroxide levels in the presence and absence of the compound.
# Basal peroxide production, generated by normal cellular metabolism, induce gradual development of low levels of peroxide-specific cellular fluorescence.
# Extracellular peroxides (e.g., H2O2 added exogenously) can permeate the cell membrane and cause a rapid and dramatic increase in the peroxide-specific fluorescence of the cell. Cellular peroxides levels can be measured by flow cytometry using the peroxide-specific dye, 2′,7′-dichlorofluorescein diacetate (DCFH-DA). DCFH-DA is initially non-fluorescent and is rapidly concentrated within living cells by an enzyme-dependent process. […] The results of the assay indicates if a test compound functions as an oxidant or an anti-oxidant in a cellular system. If the test article functions as an anti-oxidant, this assay can also be used to determine if the test compound can permeate the cell membrane to quench intracellular peroxide or if it can only affect extracellular peroxide levels (Bass et al., 1983, J. Immunol. 130:1910-1917; Bombick et al., 1992, Toxicol. Meth. 2:255-264).
# Human primary keratinocytes, generally on the third passage, were seeded in T75 flasks and cultured until 70-80% confluent. A cell suspension was created and these cells were loaded with the dye DCFH-DA. The pre-incubated cells were exposed to dilutions of the Pal-hexapeptide having the amino acid sequence SEQ ID NO: 2 in two triplicate sets per dilution. One triplicate set was incubated with H2O2 (exogenous source of peroxide), and both sets were stained with Propidium Iodide. Cell viability and peroxide production were determined by fluorescence readings on a FACScan flow cytometer. Peroxide value increases or decreases of 25% or more compared to vehicle control values are considered biologically significant.
# [2] = test system: human keloid fibroblasts; assay: Human keloid fibroblast proliferation kinetic study; conditions: for inhibition of proliferation of human keloid fibroblasts: cell counts on days 1-4, Trypan blue exclusion
# Method: Keloid can be characterized as a hyperproliferation/growth of fibrous scar tissue following trauma to the skin. […] Experimental protocols were based on a published study design for keloid fibroblast growth kinetics and is as described in Polo et al., 1999, Ann. Plastic Surg. 43 (2):185-190.
# Briefly, fibroblasts were cultured from skin tissue obtained from fresh surgical specimens. The skin specimen was rinsed in 10 ml of calcium- and magnesium-free Dulbecco's phosphate-buffered saline (Sigma Chemical Co, St. Louis, Mo.) supplemented with gentamycin ([…]) for 30 minutes at room temperature. A second antibiotic rinse using 1% 10,000 U per milliliter penicillin G, 25 micrograms per milliliter amphotericin B, 10,000 micrograms per milliliter streptomycin sulfate solution (Gibco BRL, Gran Island, N.Y.) was performed for 10 minutes. The epidermis was separated from the dermis from each piece. The specimen was cut into four pieces of equal dimensions. Each piece was placed dermis-side down into a 60-mm culture dish containing Dispase solution (Collaborative Biomedical Products, Bedford, Mass.). The explants were incubated with no additional culture media for 15 minutes at 37° C. A total of 10 ml Dulbecco's modified Eagle's medium (DMEM; Gibco BRL) was added slowly to the culture dish, which was then incubated at 37° C. at 5% carbon dioxide. The cells were subcultured until 80% confluence was obtained. Trypsin-ethylenediaminetetraacetic acid (Gibco BRL) was added to […] the cells from the surface of the culture plate, and the cells were washed with DMEM and transferred to a centrifuge tube. […] The cells were counted using a hemocytometer, and their cell number was adjusted to 1×10^6 cells, which were then plated on a 35-mm Petri dish with 2 ml DMED and 1% fetal bovine serum, and incubated at 37° C. in 5% carbon dioxide. […]
# Samples from each group were removed on days 1, 2, 3 and 4. The cells from each sample were trypsinized, washed, centrifuged, and resuspended in 1 ml DMEM; and were counted using the Trypan blue dye exclusion method and a hemocytometer.
# [3] = test system: gamma interferon-induced NO production in epidermal keratinocytes; assay: Inhibition of gamma interferon-induced nitric oxide production in keratinocytes (Griess reaction); conditions: keratinocytes, 48 hours, gamma-interferon 300 U/ml
# From the text: The study method chosen is similar to that published in the reference Tsai et al. (Tsai et al, Inhibition of inflammatory nitric oxide production and epidermis damages by Saccharomycopsis Ferment Filtrate. J Dermatol Sci 2006 June 42 (3): 249-57. Laskin, Multifunctional Role of Nitric Oxide in Inflammation, Trends Endocrinol Metab 1994; 5:377-382. Lyons, Emerging Roiles of Nitric Oxide in Inflammation, Hospital Practice, Jul. 15, 1996: 69-86.)
# The objective of the study was to investigate the inhibition effect of Pal-hexapeptide (SEQ ID NO: 2, in palmitylated form) on gamma interferon-induced NO production in epidermal keratinocytes in culture.
# Anti-inflammatory effect was observed as a reduction of nitric oxide production in keratinocytes. Keratinocytes were incubated 48 hours with gamma-interferon (300 U/ml) alone (as control) or with gamma-interferon together with different concentrations (0.1 μM, 1 μM, 10 μM, 100 μM and 1000 μM) of Pal-hexapeptide. Gamma interferon plus aminoguanidine (10 mg/mL) was used as positive control. The amount of NO production was detected by Griess reaction. Nitric oxide readily oxides to nitrite in aqueous medium, and this reaction was measured as nitrite accumulation in the medium. […] The optical density of the wells were read using a Tibertek Mutiskan (MCC microplate reader at a wavelength of 540 nm, subtracting the absorbance at a reference wavelength of 620 nm.) A printout of the absorbance values was generated by the plate reader, and data were entered into an EXCEL spreadsheet for analysis. The average absorbance and standard deviations were expressed as percent of control absorbances.
structure (smiles),measurement,setting,value
"CCCCCCCCCCCCCCCC(=O)N[C@@H](Cc1ccccc1)C(=O)N[C@@H](CO)C(=O)N[C@@H](CCCNC(=N)N)C(=O)N[C@@H](Cc1ccc(O)cc1)C(=O)N[C@@H](C)C(=O)N[C@@H](CCCNC(=N)N)C(=O)O [Pal 6 mer, Pal-FSRYAR] (Palmitoyl-FSRYAR-OH; C-terminus assumed)","peroxide level, % of the control, endogenous peroxide assay without exogenous H2O2","[1]; 0.79 mM, endogenous peroxide",40.21%
same,"peroxide level, % of the control, assay with exogenous added peroxide","[1]; 0.79 mM, exogenous H2O2 added",9.88%
same,"Cell viability, expressed as % of non-viable, treated versus not treated cells","[1]; keratinocytes, Propidium Iodide staining",about the same
same,"inhibition of human keloid fibroblast cells, dose response study",[2]; 10^−5 M or 10 micrograms per milliliter,highly effective
same,inhibition of proliferation of human keloid fibroblasts,[2]; listed as MNTF,statistically significant
same,inhibition of proliferation of human keloid fibroblasts,[2]; listed as Pal-Hexapeptide,dose-dependent reduction/inhibition
same,"nitric oxide production induced by Gamma-interferon, % of the control",[3]; 0.1 μM,92%
same,"nitric oxide production induced by Gamma-interferon, % of the control",[3]; 1 μM,72%
same,"nitric oxide production induced by Gamma-interferon, % of the control",[3]; 10 μM,57%
same,"nitric oxide production induced by Gamma-interferon, % of the control",[3]; 100 μM,24%
same,"nitric oxide production induced by Gamma-interferon, % of the control",[3]; 1000 μM,31%
